Source: paper PMC2191316 (The Journal of Experimental Medicine, 1994)
Residues, ends and D or L forms follow the SMILES beside them.

Target: DRB5*0101 molecules (Homo sapiens, UniProt P01903+Q30154)
Experiment: Inhibition of radiolabeled TT
Assay type: binding

Compound | IC50
CC[C@H](C)[C@H](NC(=O)[C@H](CC(N)=O)NC(=O)[C@H](CCCCN)NC(=O)[C@H](Cc1ccccc1)NC(=O)[C@H](Cc1ccccc1)NC(=O)[C@H](Cc1c[nH]cn1)NC(=O)[C@@H](NC(=O)[C@@H](NC(=O)[C@@H]1CCCN1C(=O)[C@H](CC(N)=O)NC(=O)[C@H](CCC(=O)O)NC(=O)[C@@H](N)CC(=O)O)C(C)C)C(C)C)C(=O)N[C@H](C(=O)N[C@H](C(=O)N1CCC[C@H]1C(=O)N[C@@H](CCCNC(=N)N)C(=O)N[C@H](C(=O)N1CCC[C@H]1C(=O)N1CCC[C@H]1C(=O)O)[C@@H](C)O)[C@@H](C)O)C(C)C [(84-102)] | 55 nM
CC[C@H](C)[C@H](NC(=O)[C@H](CC(N)=O)NC(=O)[C@H](CCCCN)NC(=O)[C@H](Cc1ccccc1)NC(=O)[C@H](Cc1ccccc1)NC(=O)[C@H](Cc1c[nH]cn1)NC(=O)[C@@H](NC(=O)[C@@H](NC(=O)[C@@H]1CCCN1C(=O)[C@H](CC(N)=O)NC(=O)[C@H](C)N)C(C)C)C(C)C)C(=O)N[C@H](C(=O)N[C@H](C(=O)N1CCC[C@H]1C(=O)N[C@@H](CCCNC(=N)N)C(=O)O)[C@@H](C)O)C(C)C [(85-99)85A] (H-ANPVVHFFKNIVTPR-OH) | 420 nM
CC[C@H](C)[C@H](NC(=O)[C@H](CC(N)=O)NC(=O)[C@H](CCCCN)NC(=O)[C@H](Cc1ccccc1)NC(=O)[C@H](Cc1ccccc1)NC(=O)[C@H](Cc1c[nH]cn1)NC(=O)[C@@H](NC(=O)[C@@H](NC(=O)[C@@H]1CCCN1C(=O)[C@H](C)NC(=O)[C@@H](N)CCC(=O)O)C(C)C)C(C)C)C(=O)N[C@H](C(=O)N[C@H](C(=O)N1CCC[C@H]1C(=O)N[C@@H](CCCNC(=N)N)C(=O)O)[C@@H](C)O)C(C)C [(85-99)86A] (H-EAPVVHFFKNIVTPR-OH) | 940 nM
CC[C@H](C)[C@H](NC(=O)[C@H](CC(N)=O)NC(=O)[C@H](CCCCN)NC(=O)[C@H](Cc1ccccc1)NC(=O)[C@H](Cc1ccccc1)NC(=O)[C@H](Cc1c[nH]cn1)NC(=O)[C@@H](NC(=O)[C@@H](NC(=O)[C@H](C)NC(=O)[C@H](CC(N)=O)NC(=O)[C@@H](N)CCC(=O)O)C(C)C)C(C)C)C(=O)N[C@H](C(=O)N[C@H](C(=O)N1CCC[C@H]1C(=O)N[C@@H](CCCNC(=N)N)C(=O)O)[C@@H](C)O)C(C)C [(85-99)87A] (H-ENAVVHFFKNIVTPR-OH) | 610 nM
CC[C@H](C)[C@H](NC(=O)[C@H](CC(N)=O)NC(=O)[C@H](CCCCN)NC(=O)[C@H](Cc1ccccc1)NC(=O)[C@H](Cc1ccccc1)NC(=O)[C@H](Cc1c[nH]cn1)NC(=O)[C@@H](NC(=O)[C@H](C)NC(=O)[C@@H]1CCCN1C(=O)[C@H](CC(N)=O)NC(=O)[C@@H](N)CCC(=O)O)C(C)C)C(=O)N[C@H](C(=O)N[C@H](C(=O)N1CCC[C@H]1C(=O)N[C@@H](CCCNC(=N)N)C(=O)O)[C@@H](C)O)C(C)C [(85-99)88A] (H-ENPAVHFFKNIVTPR-OH) | 945 nM
CC[C@H](C)[C@H](NC(=O)[C@H](CC(N)=O)NC(=O)[C@H](CCCCN)NC(=O)[C@H](Cc1ccccc1)NC(=O)[C@H](Cc1ccccc1)NC(=O)[C@H](Cc1c[nH]cn1)NC(=O)[C@H](C)NC(=O)[C@@H](NC(=O)[C@@H]1CCCN1C(=O)[C@H](CC(N)=O)NC(=O)[C@@H](N)CCC(=O)O)C(C)C)C(=O)N[C@H](C(=O)N[C@H](C(=O)N1CCC[C@H]1C(=O)N[C@@H](CCCNC(=N)N)C(=O)O)[C@@H](C)O)C(C)C [(85-99)89A] (H-ENPVAHFFKNIVTPR-OH) | 690 nM
CC[C@H](C)[C@H](NC(=O)[C@H](CC(N)=O)NC(=O)[C@H](CCCCN)NC(=O)[C@H](Cc1ccccc1)NC(=O)[C@H](Cc1ccccc1)NC(=O)[C@H](C)NC(=O)[C@@H](NC(=O)[C@@H](NC(=O)[C@@H]1CCCN1C(=O)[C@H](CC(N)=O)NC(=O)[C@@H](N)CCC(=O)O)C(C)C)C(C)C)C(=O)N[C@H](C(=O)N[C@H](C(=O)N1CCC[C@H]1C(=O)N[C@@H](CCCNC(=N)N)C(=O)O)[C@@H](C)O)C(C)C [(85-99)90A] (H-ENPVVAFFKNIVTPR-OH) | 640 nM
CC[C@H](C)[C@H](NC(=O)[C@H](CC(N)=O)NC(=O)[C@H](CCCCN)NC(=O)[C@H](Cc1ccccc1)NC(=O)[C@H](C)NC(=O)[C@H](Cc1c[nH]cn1)NC(=O)[C@@H](NC(=O)[C@@H](NC(=O)[C@@H]1CCCN1C(=O)[C@H](CC(N)=O)NC(=O)[C@@H](N)CCC(=O)O)C(C)C)C(C)C)C(=O)N[C@H](C(=O)N[C@H](C(=O)N1CCC[C@H]1C(=O)N[C@@H](CCCNC(=N)N)C(=O)O)[C@@H](C)O)C(C)C [(85-99)91A] (H-ENPVVHAFKNIVTPR-OH) | 1300 nM
CC[C@H](C)[C@H](NC(=O)[C@H](CC(N)=O)NC(=O)[C@H](CCCCN)NC(=O)[C@H](C)NC(=O)[C@H](Cc1ccccc1)NC(=O)[C@H](Cc1c[nH]cn1)NC(=O)[C@@H](NC(=O)[C@@H](NC(=O)[C@@H]1CCCN1C(=O)[C@H](CC(N)=O)NC(=O)[C@@H](N)CCC(=O)O)C(C)C)C(C)C)C(=O)N[C@H](C(=O)N[C@H](C(=O)N1CCC[C@H]1C(=O)N[C@@H](CCCNC(=N)N)C(=O)O)[C@@H](C)O)C(C)C [(85-99)92A] (H-ENPVVHFAKNIVTPR-OH) | 8200 nM
CC[C@H](C)[C@H](NC(=O)[C@H](CC(N)=O)NC(=O)[C@H](C)NC(=O)[C@H](Cc1ccccc1)NC(=O)[C@H](Cc1ccccc1)NC(=O)[C@H](Cc1c[nH]cn1)NC(=O)[C@@H](NC(=O)[C@@H](NC(=O)[C@@H]1CCCN1C(=O)[C@H](CC(N)=O)NC(=O)[C@@H](N)CCC(=O)O)C(C)C)C(C)C)C(=O)N[C@H](C(=O)N[C@H](C(=O)N1CCC[C@H]1C(=O)N[C@@H](CCCNC(=N)N)C(=O)O)[C@@H](C)O)C(C)C [(85-99)93A] (H-ENPVVHFFANIVTPR-OH) | 2900 nM
CC[C@H](C)[C@H](NC(=O)[C@H](C)NC(=O)[C@H](CCCCN)NC(=O)[C@H](Cc1ccccc1)NC(=O)[C@H](Cc1ccccc1)NC(=O)[C@H](Cc1c[nH]cn1)NC(=O)[C@@H](NC(=O)[C@@H](NC(=O)[C@@H]1CCCN1C(=O)[C@H](CC(N)=O)NC(=O)[C@@H](N)CCC(=O)O)C(C)C)C(C)C)C(=O)N[C@H](C(=O)N[C@H](C(=O)N1CCC[C@H]1C(=O)N[C@@H](CCCNC(=N)N)C(=O)O)[C@@H](C)O)C(C)C [(85-99)94A] (H-ENPVVHFFKAIVTPR-OH) | 140 nM
CC(C)[C@H](NC(=O)[C@H](C)NC(=O)[C@H](CC(N)=O)NC(=O)[C@H](CCCCN)NC(=O)[C@H](Cc1ccccc1)NC(=O)[C@H](Cc1ccccc1)NC(=O)[C@H](Cc1c[nH]cn1)NC(=O)[C@@H](NC(=O)[C@@H](NC(=O)[C@@H]1CCCN1C(=O)[C@H](CC(N)=O)NC(=O)[C@@H](N)CCC(=O)O)C(C)C)C(C)C)C(=O)N[C@H](C(=O)N1CCC[C@H]1C(=O)N[C@@H](CCCNC(=N)N)C(=O)O)[C@@H](C)O [(85-99)95A] (H-ENPVVHFFKNAVTPR-OH) | 1100 nM
CC[C@H](C)[C@H](NC(=O)[C@H](CC(N)=O)NC(=O)[C@H](CCCCN)NC(=O)[C@H](Cc1ccccc1)NC(=O)[C@H](Cc1ccccc1)NC(=O)[C@H](Cc1c[nH]cn1)NC(=O)[C@@H](NC(=O)[C@@H](NC(=O)[C@@H]1CCCN1C(=O)[C@H](CC(N)=O)NC(=O)[C@@H](N)CCC(=O)O)C(C)C)C(C)C)C(=O)N[C@@H](C)C(=O)N[C@H](C(=O)N1CCC[C@H]1C(=O)N[C@@H](CCCNC(=N)N)C(=O)O)[C@@H](C)O [(85-99)96A] (H-ENPVVHFFKNIATPR-OH) | 730 nM
CC[C@H](C)[C@H](NC(=O)[C@H](CC(N)=O)NC(=O)[C@H](CCCCN)NC(=O)[C@H](Cc1ccccc1)NC(=O)[C@H](Cc1ccccc1)NC(=O)[C@H](Cc1c[nH]cn1)NC(=O)[C@@H](NC(=O)[C@@H](NC(=O)[C@@H]1CCCN1C(=O)[C@H](CC(N)=O)NC(=O)[C@@H](N)CCC(=O)O)C(C)C)C(C)C)C(=O)N[C@H](C(=O)N[C@H](C(=O)N[C@@H](C)C(=O)N[C@@H](CCCNC(=N)N)C(=O)O)[C@@H](C)O)C(C)C [(85-99)98A] (H-ENPVVHFFKNIVTAR-OH) | 350 nM
CC[C@H](C)[C@H](NC(=O)[C@H](CC(N)=O)NC(=O)[C@H](CCCCN)NC(=O)[C@H](Cc1ccccc1)NC(=O)[C@H](Cc1ccccc1)NC(=O)[C@H](Cc1c[nH]cn1)NC(=O)[C@@H](NC(=O)[C@@H](NC(=O)[C@@H]1CCCN1C(=O)[C@H](CC(N)=O)NC(=O)[C@@H](N)CCC(=O)O)C(C)C)C(C)C)C(=O)N[C@H](C(=O)N[C@H](C(=O)N1CCC[C@H]1C(=O)N[C@@H](C)C(=O)O)[C@@H](C)O)C(C)C [(85-99)99A] (H-ENPVVHFFKNIVTPA-OH) | 2300 nM
CC[C@H](C)[C@H](NC(=O)[C@H](CC(N)=O)NC(=O)[C@H](CCCCN)NC(=O)[C@H](Cc1ccccc1)NC(=O)[C@H](Cc1ccccc1)NC(=O)[C@H](Cc1c[nH]cn1)NC(=O)[C@@H](N)C(C)C)C(=O)N[C@H](C(=O)N[C@H](C(=O)N1CCC[C@H]1C(=O)N[C@@H](CCCNC(=N)N)C(=O)O)[C@@H](C)O)C(C)C [(89-99)] (H-VHFFKNIVTPR-OH) | 1200 nM
